The values that follow come from patent US12421216B2, “Voruciclib polymorphs and methods of making and using thereof” (MEI PHARMA, INC., priority 2019, dated 2025).

Common to all, as to type: physicochemical
Data set [1] in a line: Physical stability upon exposure to accelerated aging conditions (AAC, 40° C./75% RH), re-analysis by HT-XRPD.
Data set [2] is described as follows: Physical stability of solid forms upon drying under vacuum, HT-XRPD. On the procedure:
(§1) Amorphous voruciclib oxalate salt, generated by freeze-drying, was used to start the thermocycling experiments. Suspensions were prepared in the selected solvent systems at RT. Subsequently, the mixtures were subjected to a temperature profile. After the temperature profile, the solids were separated from the solutions by centrifugation and were dried at ambient conditions and under deep vacuum before being harvested and analyzed by HT-XRPD. The liquid phases were also dried under deep vacuum before being harvested and analyzed by HT-XRPD. All solids were exposed to AAC (40° C./75% RH, 2 days).
After the temperature profile, the solids were separated from the liquids by centrifugation and the solid phase was dried at ambient conditions and under deep vacuum (5 mbar) before being harvested and analyzed by HT-XRPD. The liquid phases were dried under deep vacuum (5 mbar) and the recovered solids were analyzed by HT-XRPD. All solids were then exposed to accelerated aging conditions (40° C./75% RH, 2 days) followed by HT-XRPD re-analysis.
as §1, with “voruciclib phosphate” for “voruciclib oxalate”, “profile. Upon completion of” for “profile. After”, “dried under” for “dried at”
After the temperature profile, the solids were separated from the liquids by centrifugation and the solid phase was dried under ambient conditions and under deep vacuum (5 mbar, 18 h) before being harvested and analyzed by HT-XRPD. The liquid phases were dried under deep vacuum (5 mbar, 18 h) and the recovered solids were analyzed by HT-XRPD. All solids were then exposed to accelerated aging conditions (40° C./75% RH, 2 days) followed by HT-XRPD re-analysis.
Amorphous voruciclib malonate salt, generated by freeze-drying, was used to start the thermocycling experiments. Suspensions were prepared in the selected solvent systems at RT and were subjected to three thermocycles between 50 and 5° C., followed by aging at 25° C. for 3 days. Upon completion of the aging time, the solids were separated from the liquids by centrifugation and they were dried at ambient conditions and under deep vacuum (5 mbar) before being harvested and analyzed by HT-XRPD.
After the temperature profile the solids were separated from the solution by centrifugation and they were dried at ambient conditions and under deep vacuum before being harvested and analyzed by HT-XRPD.

The nature of data set [3]: Dynamic Vapor Sorption (DVS) hygroscopicity. How it is done:
(§2) Differences in hygroscopicity (moisture uptake) of the various forms of a solid material provided a measure of their relative stability at increasing relative humidity. Moisture sorption isotherms of small samples were obtained using a DVS-1 system from Surface Measurement Systems (London, UK); this instrument is suitable for use with a few milligrams of sample, with an accuracy of 0.1 μg. The relative humidity was varied during sorption-desorption-sorption (45-95-0-45% RH) at a constant temperature of 25° C. Weight equilibration per step was set at dm/dt <0.0002 for a minimum of 1 hour or maximum of 6 hours. Afterwards the sample was measured by HT-XRPD.
The hygroscopicity was classified according to the European Pharmacopoeia Hygroscopicity classification.
as §2, with “(40-95-0-40%” for “(45-95-0-45%”
as §2, with “use with as little as a few” for “use with a few”
The hygroscopicity of Mao1 was determined by DVS. The powder was exposed to a RH profile consisting of sorption/desorption/sorption cycles (40-95-0-40% RH) performed at 25° C. The water vapor uptake gained during the sorption half-cycle was 0.75%.

Data set [4] can be described thus: Qualitative solubility determination in water at room temperature, with observation of gel formation. How it is done:
The aqueous solubility of Oxa2 (starting material) was assessed by the qualitative solubility determination approach. To 5.4 mg of Oxa2, water was added in steps of 50 μl until the material was dissolved (Exp. ID: SAS1). Visual inspection by the naked eye was used to decide whether complete dissolution occurred.
After the addition of 7.5 ml water, Oxa2 was not dissolved in water at room temperature. The suspension was heated to 50° C. upon which complete dissolution occurred, as indicated by a clear solution.
The aqueous solubility of Pho1 (Exp. ID: TCP23) was assessed by the qualitative solubility determination approach. To 5.6 mg of Pho1, water was added in steps of 50 μl until the material was dissolved (Exp. ID: SAS2). Visual inspection by the naked eye was used to decide whether complete dissolution occurred. After the addition of 700 μl water, Pho1 was not dissolved in water at room temperature whereas after a subsequent addition of 200 μl water (900 μl in total), the material completely dissolved.
The solubility of Mao1 in water was determined by adding small aliquots of water to the material until it was dissolved.

Each structure is given as a SMILES string. Entries after “also recorded” stand apart in the source; their conditions may differ.

Consider `CN1CC[C@@H](c2c(O)cc(O)c3c(=O)cc(-c4ccc(C(F)(F)F)cc4Cl)oc23)[C@@H]1CO.O=C(O)C(=O)O` [Oxa2], for which, in data set [1] (40° C./75% RH, 2 days, HT-XRPD before and after), the “Physical stability upon exposure to AAC” value is “stable when exposed to advanced aging conditions; also recorded: physically stable upon exposure to AAC”. The “Solid forms Ambient AAC” value in data set [1] (oxalate salt thermocycling, ambient-dried solids after AAC (40° C./75% RH, 2 days), HT-XRPD) is “Oxa2”. Besides, the “Solid forms ML AAC” value in data set [1] (oxalate salt thermocycling, solids from evaporated mother liquor after AAC (40° C./75% RH, 2 days), HT-XRPD) is reported as “Oxa2”. Further, the “Solid forms Vacuum AAC” value in data set [1] (oxalate salt thermocycling, vacuum-dried solids after AAC (40° C./75% RH, 2 days), HT-XRPD) was “Oxa2”. In data set [2] (oxalate salt thermocycling solids, form after drying under deep vacuum (5 mbar, 18 h), HT-XRPD, label = ambient-dried form), the “Solid forms Vacuum” value is “Oxa2”. Besides, the “Physical stability upon drying under deep/high vacuum” value in data set [2] (oxalate, phosphate, malonate forms, 5 mbar, 18 h) was “stable under vacuum conditions; also recorded: physically stable”. The Water uptake result in data set [3] (DVS, 25° C./80% RH) is “approximately 2.4%”. Besides, the Hygroscopicity classification result in data set [3] (European Pharmacopoeia classification, water uptake at 25° C./80% RH) is “moderately hygroscopic”. The “Solid form recovered after DVS analysis” value in data set [3] (XRPD after sorption-desorption-sorption cycle) is reported as “Oxa2 was recovered”. For the same compound, the “Solubility classification in water” value in data set [4] (USP classification, room temperature) is recorded as “practically insoluble (solubility <0.1 mg/mL)”. Also, the “Solubility in water at room temperature” value in data set [4] (qualitative determination by adding aliquots of water, visual) was less than 100 µg/mL. Also, the “Behaviour upon addition of water (gel formation)” value in data set [4] (small amount of water added to solid) is listed as “No indication of gel-formation was observed”.
